Source: ChEMBL document CHEMBL1136471, “Fluorescence resonance energy transfer in a novel cyclodextrin-peptide conjugate for detecting steroid molecules” (Bioorg Med Chem Lett, 2003)

Tests used:
[1] = Binding constant towards cyclodextrin conjugated peptide (with pyrene) at 25 degrees Centigrade
[2] = Sensitivity value towards cyclodextrin conjugated peptide (with pyrene) at 25 degrees Centigrade; set-up: concentration or dose not given beside the values

Row | SMILES | Activity [1] | Change in sensitivity [2]
1 | C[C@H](CCC(=O)O)[C@H]1CC[C@H]2[C@@H]3CC[C@@H]4C[C@H](O)CCC4(C)[C@H]3C[C@H](O)[C@]12C (single isomer, unassigned) | 1100 Kb M-1 | 0.01
2 | C[C@H](CCC(=O)O)[C@H]1CC[C@H]2[C@@H]3CC[C@@H]4C[C@H](O)CC[C@]4(C)[C@H]3CC[C@]12C | 439000 Kb M-1 | 0.45
3 | C[C@H](CCC(=O)O)[C@H]1CC[C@H]2[C@@H]3[C@H](O)C[C@@H]4C[C@H](O)CC[C@]4(C)[C@H]3CC[C@]12C | 33300 Kb M-1 | 0.16
4 | C[C@H](CCC(=O)O)[C@H]1CC[C@H]2[C@@H]3[C@H](O)C[C@@H]4C[C@H](O)CC[C@]4(C)[C@H]3C[C@H](O)[C@]12C | 900 Kb M-1 | 0.008
5 | C[C@H](CCC(=O)O)[C@H]1CC[C@H]2[C@@H]3C[C@H](O)[C@@H]4C[C@H](O)CC[C@]4(C)[C@H]3CC[C@]12C | 210000 Kb M-1 | 0.4
6 | C[C@H](CCC(=O)O)[C@H]1CC[C@H]2[C@@H]3[C@@H](O)C[C@@H]4C[C@H](O)CC[C@]4(C)[C@H]3CC[C@]12C | 173000 Kb M-1 | 0.4
